Data as given in patent US9493461B2, “Tetracyclic heterocycle compounds and methods of use thereof for the treatment of hepatitis C” (priority 2013, dated 2016).
Read-outs that look alike come from different tables or passages of the source.

How the values were obtained:
HCV replicon genotype 1b = assay: HCV replicon assay, genotype 1b (cell ELISA for replicon-encoded NS3/4A); format: cell-based, hepatitis C virus (HCV)
Method: The HCV NS5B inhibitory activity of the present compounds may be tested using assays known in the art. The HCV NS5B polymerase inhibitors described herein have activities in a genotype 1b replicon assay as described in the Examples. The assay is performed by incubating a replicon harboring cell-line in the presence of inhibitor for a set period of time and measuring the effect of the inhibitor on HCV replicon replication either directly by quantifying replicon RNA level, or indirectly by measuring enzymatic activity of a co-encoded reporter enzyme such as luciferase or β-lactamase. By performing a series of such measurements at different inhibitor concentrations, the effective inhibitory concentration of the inhibitor (EC50 or EC90) is determined See Jan M. Vrolijk et al., A replicons-based bioassay for the measurement of interferons in patients with chronic hepatitis C, 110 J. VIROLOGICAL METHODS 201 (2003). Such assays may also be run in an automated format for high through-put screening. See Paul Zuck et al., A cell-based β-lactamase reporter gene assay for the identification of inhibitors of hepatitis C virus replication, 334 ANALYTICAL BIOCHEMISTRY 344 (2004).
(§1) Measurement of inhibition by compounds was performed using the HCV replicon system. Several different replicons encoding different HCV genotypes or mutations were used. In addition, potency measurements were made using different formats of the replicon assay, including different ways of measurements and different plating formats. See Jan M. Vrolijk et al., A replicons-based bioassay for the measurement of interferons in patients with chronic hepatitis C, 110 J. VIROLOGICAL METHODS 201 (2003); Steven S. Carroll et al., Inhibition of Hepatitis C Virus RNA Replication by 2′-Modified Nucleoside Analogs, 278(14) J. BIOLOGICAL CHEMISTRY 11979 (2003). However, the underlying principles are common to all of these determinations, and are outlined below.
(§2) Stable neomycin phosphotransferase encoding replicons-harboring cell lines were used, so all cell lines were maintained under G418 selection prior to the assay. Potency was determined using a cell ELISA assay with an antibody to the replicons encoded NS3/4a protease. See Caterina Trozzi et al., In Vitro Selection and Characterization of Hepatitis C Virus Serine Protease Variants Resistant to an Active-Site Peptide Inhibitor, 77(6) J. Virol. 3669 (2003). To initiate an assay, replicon cells were plated in the presence of a dilution series of test compound in the absence of G418. Typically, the assays were performed in a 96-well plate formate for manual operation, or a 384-well plate format for automated assay. Replicon cells and compound were incubated for 96 hours. At the end of the assay, cells were washed free of media and compound, and the cells were then lysed. RNA was quantified indirectly through detection of replicon-encoded NS3/4A protein levels, through an ELISA-based assay with an antibody specific for NS3/4A. IC50 determinations were calculated as a percentage of a DMSO control by fitting the data to a four-parameter fit function and the data obtained is provided in the table below.
(§3) Data for selected compounds of the present invention was obtained for genotypes 1a and 1b using this method and is provided in the table below: […]

HCV replicon genotype 1a = assay: HCV replicon assay, genotype 1a (cell ELISA for replicon-encoded NS3/4A); format: cell-based, hepatitis C virus (HCV)
Method: as §1, with “V[…]” for “VIROLOGICAL METHODS”
as §2, §3

[1] = Hepatitis C virus, 96 h, read-out: 1b IC50 (nM), genotype 1b replicon cells, 96 hours incubation, NS3/4A ELISA readout, % of DMSO control
[2] = Hepatitis C virus, 96 h, read-out: 1a IC50 (nM), genotype 1a replicon cells, 96 hours incubation, NS3/4A ELISA readout, % of DMSO control

SMILES	IC50 (HCV replicon genotype 1b; [1]) [nM]	IC50 (HCV replicon genotype 1a; [2]) [nM]	IC50 (HCV replicon genotype 1b; read-out: 1b IC50, genotype 1b replicon cells, 96 hours incubation, NS3/4A ELISA readout, % of DMSO control) [nM]	IC50 (HCV replicon genotype 1a; read-out: 1a IC50, genotype 1a replicon cells, 96 hours incubation, NS3/4A ELISA readout, % of DMSO control) [nM]
CNC(=O)c1c(-c2ccc(F)cc2)oc2cc(N(C)S(C)(=O)=O)c(-c3ccc4nc(CN5CCC(F)(F)CC5)n5c6cccc(F)c6cc5c4n3)cc12 [Example 92]	23.7	14.6		
CNC(=O)c1c(-c2ccc(F)cc2)oc2cc(N(C)S(C)(=O)=O)c(-c3ccc4nc(CN5CC(C)(C#N)C5)n5c6cccc(C#N)c6cc5c4n3)cc12 [Example 130]	1.39	1.22		
CNC(=O)c1c(-c2ccc(F)cc2)oc2cc(N(C)S(C)(=O)=O)c(-c3ccc4nc(CN(C)CC(=O)N(C)C)n5c6cccc(F)c6cc5c4n3)cc12 [Example 115]	4.93	2.19		
CNC(=O)c1c(-c2ccc(F)nc2)oc2cc(N(C)S(C)(=O)=O)c(-c3ccc4ncn5c6cccc(F)c6cc5c4n3)cc12 [Example 7]	3.6	1.49		
CNC(=O)c1c(-c2ccc(F)cc2F)oc2cc(N(C)S(C)(=O)=O)c(-c3ccc4nc(CN5CC(C(C)(C)O)C5)n5c6cccc(F)c6cc5c4n3)cc12 [Example 143]	6.21	5.17		
CNC(=O)c1c(-c2ccc(F)cc2)oc2cc(N(C)S(C)(=O)=O)c(-c3ccc4nc(N)n5c6cccc(F)c6cc5c4n3)cc12 [Example 25, 5-(6-amino-11-fluoropyrido[3′,2′:4,5]pyrimido[1,6-a]indol-2-yl)-2-(4-fluorophenyl)-N-methyl-6-(N-methylmethylsulfonamido)benzofuran-3-carboxamide]	145	245		
CNC(=O)c1c(C2CC2)oc2cc(N(C)S(C)(=O)=O)c(-c3ccc4ncn5c6cccc(F)c6cc5c4n3)cc12 [Example 8]	5.82	5.71		
CNC(=O)c1c(-c2ccc(F)nc2)oc2cc(N(C)S(C)(=O)=O)c(-c3ccc4nc(CN5CC(F)C5)n5c6cccc(F)c6cc5c4n3)cc12 [Example 31]	4.69	2.95		
CNC(=O)c1c(-c2ccc(F)cc2)oc2nc(N(C)S(C)(=O)=O)c(-c3ccc4ncn5c6cccc(F)c6cc5c4n3)cc12 [Example 14, 2-(4-fluorophenyl)-5-(11-fluoropyrido[3′,2′:4,5]pyrimido[1,6-a]indol-2-yl)-N-methyl-6-(N-methylmethylsulfonamido)furo[2,3-b]pyridine-3-carboxamide]	3.72	1.75		
CNC(=O)c1c(-c2ccc(F)cc2)oc2cc(N(C)S(C)(=O)=O)c(-c3ccc4ncn5c6cccc(F)c6cc5c4n3)cc12 [Example 10, 2-(4-fluorophenyl)-5-(11-fluoropyrido[3′,2′:4,5]pyrimido[1,6-a]indol-2-yl)-N-methyl-6-(N-methylmethylsulfonamido)benzofuran-3-carboxamide]	3.24	2.01		
CNC(=O)c1c(-c2ccc(F)cc2)oc2cc(N(C)S(C)(=O)=O)c(-c3ccc4nc(CN5CC(F)(C#N)C5)n5c6cccc(F)c6cc5c4n3)cc12 [Example 110]	5.51	4.04		
CNC(=O)c1c(-c2ccc(F)cc2)oc2cc(N(C)S(C)(=O)=O)c(-c3ccc4c(n3)-c3cc5c(F)cccc5n3C(C)(C)N4)cc12 [Example 66, 5-(11-fluoro-6,6-dimethyl-5,6-dihydropyrido[3′,2′:4,5]pyrimido[1,6-a]indol-2-yl)-2-(4-fluorophenyl)-N-methyl-6-(N-methylmethylsulfonamido)benzofuran-3-carboxamide]	9.23	5.96		
CNC(=O)c1c(-c2ccc(F)cc2)oc2cc(N(C)S(C)(=O)=O)c(-c3ccc4nc(CCN5CC(F)C5)n5c6cccc(F)c6cc5c4n3)cc12 [Example 54, 5-(11-fluoro-6-(2-(3-fluoroazetidin-1-yl)ethyl)pyrido[3′,2′:4,5]pyrimido[1,6-a]indol-2-yl)-2-(4-fluorophenyl)-N-methyl-6-(N-methylmethylsulfonamido)benzofuran-3-carboxamide]	4.86	2.14		
CNC(=O)c1c(-c2ccc(F)cc2)oc2cc(N(C)S(C)(=O)=O)c(-c3cc4c(cn3)nc(CS(C)(=O)=O)n3c5cccc(F)c5cc43)cc12 [Example 24]	1.9	2.73		
CNC(=O)c1c(-c2ccc(F)cc2F)oc2cc(N(C)S(C)(=O)=O)c(-c3ccc4ncn5c6cccc(F)c6cc5c4n3)cc12 [Example 9, 2-(2,4-difluorophenyl)-5-(11-fluoropyrido[3′,2′:4,5]pyrimido[1,6-a]indol-2-yl)-N-methyl-6-(N-methylmethylsulfonamido)benzofuran-3-carboxamide]	1.99	1.16		
CNC(=O)c1c(-c2ccc(F)cc2)oc2cc(N(C)S(C)(=O)=O)c(-c3ccc4c(n3)-c3cc5c(F)cccc5n3CN4CC(=O)OC)cc12 [Example 69, methyl 2-(11-fluoro-2-(2-(4-fluorophenyl)-3-(methylcarbamoyl)-6-(N-methylmethylsulfonamido)benzofuran-5-yl)pyrido[3′,2′:4,5]pyrimido[1,6-a]indol-5(6H)-yl)acetate]	6.04	9.69		
CNC(=O)c1c(-c2ccc(F)cc2)oc2cc(N(C)S(C)(=O)=O)c(-c3ccc4nc(CN5CC(S(C)(=O)=O)C5)n5c6cccc(F)c6cc5c4n3)cc12 [Example 107]	3.04	3.33		
CNC(=O)c1c(-c2ccc(F)cc2F)oc2cc(N(C)S(C)(=O)=O)c(-c3ccc4c(n3)-c3cc5c(F)cccc5n3CN4)cc12 [Example 58]	2.76	1.68		
CNC(=O)c1c(-c2ccc(C)nc2)oc2cc(N(C)S(C)(=O)=O)c(-c3ccc4nc(CN5CC(F)C5)n5c6cccc(F)c6cc5c4n3)cc12 [Example 28, 5-(11-fluoro-6-((3-fluoroazetidin-1-yl)methyl)pyrido[3′,2′:4,5]pyrimido[1,6-a]indol-2-yl)-N-methyl-6-(N-methylmethylsulfonamido)-2-(6-methylpyridin-3-yl)benzofuran-3-carboxamide]	5.38	15.2		
CNC(=O)c1c(C2CC2)oc2cc(N(C)S(C)(=O)=O)c(-c3ccc4nc(CN5CC(F)C5)n5c6cccc(F)c6cc5c4n3)cc12 [Example 33]			2.55	2.35
CNC(=O)c1c(-c2ccc(F)cc2)oc2cc(N(C)S(C)(=O)=O)c(-c3ccc4nc(CCN5CC(F)C5)c5c([nH]c6cccc(F)c65)c4n3)cc12 [54′, 5-(7-fluoro-6-(2-(3-fluoroazetidin-1-yl)ethyl)-11H-indolo[3,2-c][1,5]naphthyridin-2-yl)-2-(4-fluorophenyl)-N-methyl-6-(N-methylmethylsulfonamido)benzofuran-3-carboxamide]	4.24	4.17		
CNC(=O)c1c(-c2ccc(F)cc2F)oc2cc(N(C)S(C)(=O)=O)c(-c3ccc4nc(CN5CCC[C@@H]5C(F)(F)F)n5c6cccc(F)c6cc5c4n3)cc12 [Example 144]	14.6	13.3		
CNC(=O)c1c(-c2ccc(F)cc2)oc2cc(N(C)S(C)(=O)=O)c(-c3cc4c(cn3)nc(CN3CCOCC3)n3c5cccc(F)c5cc43)cc12 [Example 112]	3.45	2.02		
